Laboratory results: US8629328B2 (Monsanto Technology LLC, priority 2006, dated 2014)
Where two headings read alike, the source gives them in different places.

Legend:
[1] = system: soybean plants transformed with the DMO-encoding polynucleotide construct (Events 1-4); conditions: early pre-emergence; highest rate 5040 g/ha, 4.5 lb/acre, 9× labeled rate
Method: Transgenic soybean plants were obtained by Agrobacterium transformation of soybean cotyledonary nodes using standard procedures and a binary vector containing the DMO-encoding polynucleotide given as SEQ ID NO:7, which encodes the polypeptide of SEQ ID NO:8. Four transgenic soybean events were prepared and designated Events 1-4. […] Non-transgenic soybean plants were used as controls.
Transgenic and control soybean seeds were planted into 3.5-inch square plastic pots containing Redi-earth™ (Scotts-Siena Horticultural Products Co., Marysville, Ohio). […] The pots were placed on capillary matting in 35 inch×60 inch fiberglass watering trays for overhead and/or sub-irrigation for the duration of the test period so as to maintain optimum soil moisture for plant growth and were fertilized with Osmocote (14-14-14 slow release; Scotts-Siena Horticultural Products Co., Marysville, Ohio) at the rate of 100 gm/cu.ft. to sustain plant growth for the duration of greenhouse trials. […]
Treated plants in greenhouse trials were visually assessed at a particular day after treatment (DAT) for injury on a scale of 0 to 100 percent relative to untreated control plants, with zero representing “no” injury and 100% representing “complete” injury or death. Data were collected and analyzed using suitable statistical methods.

MARESTAIL (CA) Resistant = experiment: Control of marestail by dicamba or glyphosate, treated at rosette leaf stage; format: in vivo, Conyza canadensis; conditions: dicamba formulation 280 g/ha
From the text: (§1) Marestail is one of the major weeds in a crop field. Marestail is effectively controlled by glyphosate, but the development of methods for controlling this common weed with other herbicides is important to minimize opportunities for herbicide tolerance to develop.

MARESTAIL (KY) Resistant = experiment: as above; format: in vivo, Conyza canadensis; conditions: dicamba formulation 280 g/ha
From the text: as §1

Marestail Resistant (KY) = experiment: Dicamba, glyphosate and their combination on marestail; format: in vivo, Conyza canadensis; conditions: dicamba formulation 40 g/ha
[2] = system: transgenic corn plants transformed with DNA constructs carrying DMO; conditions: for Percentage brace root injury: 0.5 lb/a at V3 followed by 1 lb/a at V8
From the text: This expression element contains first intron and flanking UTR exon sequences from the rice actin 1 gene and includes 12 nt of exon 1 at the 5′ end and 7 nt of exon 2 at the 3′ end), and a 3′UTR (e.g. TaHsp17). Nucleotide sequences/an or patent references for various expression elements are disclosed in co-pending application U.S. Ser. No. 60/891,675.
Transgenic corn plants were produced by the methods known in the art such as WO9506722 and US patent application 20040244075. […] Six events from each of the six constructs were used. […] The entire plot was fertilized uniformly to obtain an agronomically acceptable crop. A soil insecticide such as Force® 3G (Syngenta Crop Protection, Greensboro, N.C., USA) at 5 oz. per 1000 ft. of row for control of corn rootworm was applied at planting time. If black cutworm infestation was observed, POUNCE® 3.2EC at 4 to 8 oz. per acre rate (FMC Corporation, Philadelphia, Pa.) was used. In addition, an insecticide spray program was used to control all above ground lepidopteran pests including European corn borer, corn earworm, and fall armyworm. POUNCE® 3.2EC at 4 to 8 oz. per acre was applied every 3 weeks to control lepidopteran pests; about 4 applications were made. The plot was kept weed free with a pre-emergence application of a herbicide such as Harness® Xtra 5.6 L (Monsanto, St. Louis, Mo.) and Degree Xtra® (Monsanto, St. Louis, Mo.).
Brace root injury was evaluated visually by counting the number of plants in a row showing an “atypical” morphology of having the brace roots fused as compared to a typical morphology of “finger-like” structure.

[3] = system: transformed cotton plants comprising a DMO coding region
From the text: Several DNA constructs carrying a DMO coding region as disclosed herein with a transit peptide (e.g., PsRbcS CTP, CTP1, CTP2) under the control of plant gene expression elements such as a promoter (e.g. PC1SV, FMV, or e35S), and a 3′UTR (e.g. E6; Accession #U30508) were produced and transformed into cotton (Gossypium hirsutum) as follows. Nucleotide sequences/and or patent references for various expression elements are disclosed in co-pending application U.S. Ser. No. 60/891,675. Media used are noted in Table 13.
Cotton transformation was performed, for instance as described according to U.S. Patent Application Publication 20040087030, via an embryogenic approach. Explants of cotton cv Coker 130 were grown in vitro and with a liquid suspension of Agrobacterium tumefaciens carrying a DNA construct of interest, using selection on kanamycin containing media. Putative transgenic plantlets were then transferred to soil to obtain mature cotton plants.

COc1c(Cl)ccc(Cl)c1C(=O)O [dicamba, 3,6-dichloro-o-anisic acid]
injury to the transgenic plants [1]: less than 10%
% Injury (21 DAT) (MARESTAIL (CA) Resistant): about 83%
% Injury (21 DAT) (MARESTAIL (KY) Resistant): about 91%
% Injury (18 DAT) (Marestail Resistant (KY)): about 52%
level of brace root injury ([2]; constructs coding for a DMO linked to a CTP (pMON73716, pMON73700, pMON73715, pMON73703)): lower level of brace root injury
level of brace root injury ([2]; constructs coding for a DMO without CTP (pMON73699, pMON73704)): higher level of brace root injury
Percentage brace root injury ([2]; pMON73699 (PC1SV/I-OsAct1/DMO-Wmc/TaHsp17)): 93.2%
Percentage brace root injury ([2]; pMON73700 (PC1SV/I-OsAct1/CTP1/DMO-Wmc/TaHsp17)): 74.4%
Percentage brace root injury ([2]; pMON73703 (e35S/I-OsAct1/CTP1/DMO-Wmc/TaHsp17)): 68.8%
Percentage brace root injury ([2]; pMON73704 (e35S/I-OsAct1/DMO-Wmc/TaHsp17)): 91.3%
Percentage brace root injury ([2]; pMON73715 (PC1SV/I-OsAct1/CTP2syn/DMO-Wmc/TaHsp17)): 68.2%
Percentage brace root injury ([2]; pMON73716 (PC1SV/I-OsAct1/TaWaxy/DMO-Wmc/TaHsp17)): 78.8%
tolerance to subsequent post-emergent treatment ([3]; 0.5 lb/acre at V3-4 followed by 1 or 2 lb/acre at V5 or later stages): still tolerant
tolerance ([3]; post-emergent at V4-5 growth stage, 561 g ae/ha (0.5 lb/a)): tolerant
tolerance of R1 transgenic seeds and plants ([3]; pre-emergence or pre-emergence and post-emergence dicamba treatment): tolerant
